Test results as given in ChEMBL document CHEMBL1201862, “PubChem BioAssay data set” (2004).
Calls of active or inactive are those of the source.

How the values were obtained:
[1] = molecular target: Dual specificity protein phosphatase 3 (Homo sapiens, UniProt P51452); assay: VHR1 phosphatase inhibitors, biochemical (AID 1878)
[2] = Intein inhibitors as potential Tuberculosis drugs, a cytotoxicity screen. [Related pubchem assays (depositor defined):AID2221, AID2223, AID434968, AID435010, AID449749, AID449750, AID489010]; assay type: functional
[3] = molecular target: T1, Replicative DNA helicase DnaB (Mycobacterium tuberculosis, UniProt P9WMR3); assay: DnaB intein splicing inhibitors, dose response, biochemical, cell-free fluorescence (AID 449749); assay type: functional
T1 sequence (P9WMR3 whole entry): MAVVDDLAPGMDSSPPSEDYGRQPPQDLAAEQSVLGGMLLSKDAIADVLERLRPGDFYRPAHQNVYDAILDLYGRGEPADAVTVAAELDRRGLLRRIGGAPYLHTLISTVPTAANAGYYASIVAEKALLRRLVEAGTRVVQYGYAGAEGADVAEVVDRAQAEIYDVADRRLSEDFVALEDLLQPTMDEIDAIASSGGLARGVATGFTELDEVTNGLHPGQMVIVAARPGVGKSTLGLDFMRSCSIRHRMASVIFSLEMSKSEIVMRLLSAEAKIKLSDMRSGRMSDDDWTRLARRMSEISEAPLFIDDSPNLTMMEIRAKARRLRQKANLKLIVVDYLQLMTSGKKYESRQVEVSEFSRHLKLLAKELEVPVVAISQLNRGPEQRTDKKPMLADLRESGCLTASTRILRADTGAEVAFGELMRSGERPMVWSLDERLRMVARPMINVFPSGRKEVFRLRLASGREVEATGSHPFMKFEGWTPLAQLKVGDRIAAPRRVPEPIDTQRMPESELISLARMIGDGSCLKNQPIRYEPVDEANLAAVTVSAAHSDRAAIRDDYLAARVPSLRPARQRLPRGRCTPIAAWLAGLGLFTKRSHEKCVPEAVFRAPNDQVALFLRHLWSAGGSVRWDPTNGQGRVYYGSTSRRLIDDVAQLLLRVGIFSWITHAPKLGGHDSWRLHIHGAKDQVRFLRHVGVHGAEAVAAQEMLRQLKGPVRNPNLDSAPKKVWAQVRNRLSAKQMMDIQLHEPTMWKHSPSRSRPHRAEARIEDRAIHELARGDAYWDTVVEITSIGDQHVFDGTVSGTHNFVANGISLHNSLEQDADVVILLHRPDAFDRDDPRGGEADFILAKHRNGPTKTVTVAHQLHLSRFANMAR

[4] = molecular target: T2, Apoptotic protease-activating factor 1 (Homo sapiens, UniProt O14727); assay type: functional
T2 sequence (O14727 whole entry): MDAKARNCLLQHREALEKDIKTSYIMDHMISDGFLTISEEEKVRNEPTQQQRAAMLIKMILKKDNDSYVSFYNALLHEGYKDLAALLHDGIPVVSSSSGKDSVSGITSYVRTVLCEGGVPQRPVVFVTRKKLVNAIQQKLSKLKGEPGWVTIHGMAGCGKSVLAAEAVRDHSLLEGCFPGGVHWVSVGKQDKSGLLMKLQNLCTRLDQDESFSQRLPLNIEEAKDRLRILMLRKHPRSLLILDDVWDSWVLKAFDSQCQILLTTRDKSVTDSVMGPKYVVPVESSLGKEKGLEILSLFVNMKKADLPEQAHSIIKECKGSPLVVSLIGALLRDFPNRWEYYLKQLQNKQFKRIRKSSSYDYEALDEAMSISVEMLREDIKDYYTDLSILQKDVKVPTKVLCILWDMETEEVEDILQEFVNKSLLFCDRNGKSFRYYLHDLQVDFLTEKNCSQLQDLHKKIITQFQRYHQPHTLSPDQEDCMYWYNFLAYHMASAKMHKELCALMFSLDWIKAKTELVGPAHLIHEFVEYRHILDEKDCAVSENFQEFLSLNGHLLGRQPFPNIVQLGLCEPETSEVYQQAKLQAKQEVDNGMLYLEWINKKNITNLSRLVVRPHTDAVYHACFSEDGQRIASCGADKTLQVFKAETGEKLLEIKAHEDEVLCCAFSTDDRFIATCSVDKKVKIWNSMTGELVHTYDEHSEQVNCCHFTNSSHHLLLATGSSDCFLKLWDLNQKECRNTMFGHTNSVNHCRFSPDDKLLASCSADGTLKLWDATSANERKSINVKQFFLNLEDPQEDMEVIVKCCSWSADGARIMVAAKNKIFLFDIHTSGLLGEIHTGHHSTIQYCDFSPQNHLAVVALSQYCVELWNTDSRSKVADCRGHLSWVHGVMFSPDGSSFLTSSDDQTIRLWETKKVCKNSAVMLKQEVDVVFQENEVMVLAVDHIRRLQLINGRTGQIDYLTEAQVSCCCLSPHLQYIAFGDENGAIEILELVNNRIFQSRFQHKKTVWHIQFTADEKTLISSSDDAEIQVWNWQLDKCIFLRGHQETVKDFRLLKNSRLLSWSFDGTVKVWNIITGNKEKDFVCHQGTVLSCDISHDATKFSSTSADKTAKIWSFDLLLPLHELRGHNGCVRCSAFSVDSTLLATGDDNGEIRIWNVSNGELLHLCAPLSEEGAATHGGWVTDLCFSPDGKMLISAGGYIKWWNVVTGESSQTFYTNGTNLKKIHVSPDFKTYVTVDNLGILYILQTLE

[5] = control 3'UTR Renilla luciferase suppression, dose response, counter-screen for Shn3 inhibitor project, cell-based, Clone20-Shn3RL, cherry-picked (AID 624133); assay type: functional
[6] = cytotoxicity in HEK-293T NF-kB-Luc cells, dose response, cytotoxicity control for B/T-cell NF-kB inhibitor project, cell-based, uHTS hits (AID 489019); assay type: functional;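 note: IC50 reflects cytotoxicity as loss of cell viability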
Cytochrome P450 2C9 = Cytochrome P450 2C9 (Homo sapiens, UniProt P11712)
[7] = molecular target: Serine/threonine-protein kinase PLK4 (Homo sapiens, UniProt O00444); assay type: functional;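 note: PLK4 measured as one member of a kinome-wide kinase profiling panel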
[8] = molecular target: Serine/threonine-protein kinase N2 (Homo sapiens, UniProt Q16513); assay type: functional
[9] = molecular target: Tyrosine-protein kinase Blk (Homo sapiens, UniProt P51451); assay type: functional;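 note: obtained as one member of a kinome-wide kinase assay panel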
[10] = molecular target: High affinity nerve growth factor receptor (Homo sapiens, UniProt P04629); assay type: functional;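 note: NTRK1 tested as one member of a kinome-wide profiling panel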
[11] = molecular target: Protein kinase C gamma type (Homo sapiens, UniProt P05129); assay type: functional
[12] = molecular target: Tyrosine-protein kinase Fer (Homo sapiens, UniProt P16591); assay type: functional;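 note: FER tested as one member of a kinome panel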
[13] = molecular target: STE20-like serine/threonine-protein kinase (Homo sapiens, UniProt Q9H2G2); assay type: functional
[14] = molecular target: cAMP-dependent protein kinase catalytic subunit alpha (Homo sapiens, UniProt P17612); assay type: functional
[15] = molecular target: Tyrosine-protein kinase FRK (Homo sapiens, UniProt P42685); assay type: functional;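 note: FRK tested as one member of a kinome panel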
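Throughout, for CC50: cells exposed to compound for 72 hours before luminescence readout.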

Sequence of Cytochrome P450 2C9 (P11712 whole entry): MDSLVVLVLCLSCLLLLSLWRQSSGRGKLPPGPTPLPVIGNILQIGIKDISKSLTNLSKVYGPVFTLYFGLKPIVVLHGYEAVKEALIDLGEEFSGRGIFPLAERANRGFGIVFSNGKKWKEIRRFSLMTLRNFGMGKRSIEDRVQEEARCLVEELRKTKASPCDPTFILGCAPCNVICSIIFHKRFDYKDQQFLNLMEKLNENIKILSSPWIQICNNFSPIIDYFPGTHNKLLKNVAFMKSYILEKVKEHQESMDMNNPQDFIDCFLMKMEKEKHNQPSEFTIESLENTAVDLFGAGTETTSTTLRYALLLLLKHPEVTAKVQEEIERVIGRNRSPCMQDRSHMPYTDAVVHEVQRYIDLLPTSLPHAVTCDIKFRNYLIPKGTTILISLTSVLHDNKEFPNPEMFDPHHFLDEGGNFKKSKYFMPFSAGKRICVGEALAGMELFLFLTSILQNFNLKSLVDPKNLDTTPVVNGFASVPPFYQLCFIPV
Sequence of Serine/threonine-protein kinase PLK4 (O00444 whole entry): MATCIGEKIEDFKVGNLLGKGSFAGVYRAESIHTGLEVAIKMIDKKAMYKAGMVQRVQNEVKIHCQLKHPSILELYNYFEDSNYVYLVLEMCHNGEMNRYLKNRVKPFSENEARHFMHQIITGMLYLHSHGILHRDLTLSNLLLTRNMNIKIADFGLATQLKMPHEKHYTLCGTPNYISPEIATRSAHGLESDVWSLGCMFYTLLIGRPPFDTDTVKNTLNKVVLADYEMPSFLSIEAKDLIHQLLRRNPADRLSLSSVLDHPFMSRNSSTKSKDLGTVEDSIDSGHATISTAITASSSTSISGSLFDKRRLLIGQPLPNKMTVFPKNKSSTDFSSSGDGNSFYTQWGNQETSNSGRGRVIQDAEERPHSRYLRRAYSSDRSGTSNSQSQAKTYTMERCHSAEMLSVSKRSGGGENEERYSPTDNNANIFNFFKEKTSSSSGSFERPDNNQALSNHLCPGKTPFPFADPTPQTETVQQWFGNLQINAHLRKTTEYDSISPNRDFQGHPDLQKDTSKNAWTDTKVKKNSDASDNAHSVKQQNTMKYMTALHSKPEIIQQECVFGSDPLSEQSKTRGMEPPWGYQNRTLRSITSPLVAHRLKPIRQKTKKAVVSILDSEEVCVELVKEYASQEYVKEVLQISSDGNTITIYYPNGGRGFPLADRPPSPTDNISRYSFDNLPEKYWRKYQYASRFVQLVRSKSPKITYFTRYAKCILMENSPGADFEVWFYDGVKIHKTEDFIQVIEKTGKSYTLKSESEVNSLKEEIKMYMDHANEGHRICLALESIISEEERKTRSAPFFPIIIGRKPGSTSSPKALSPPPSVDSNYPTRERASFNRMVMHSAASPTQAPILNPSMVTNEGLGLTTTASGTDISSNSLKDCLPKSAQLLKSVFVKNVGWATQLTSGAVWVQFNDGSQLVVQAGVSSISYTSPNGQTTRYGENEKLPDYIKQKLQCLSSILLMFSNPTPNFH
Sequence of Serine/threonine-protein kinase N2 (Q16513 whole entry): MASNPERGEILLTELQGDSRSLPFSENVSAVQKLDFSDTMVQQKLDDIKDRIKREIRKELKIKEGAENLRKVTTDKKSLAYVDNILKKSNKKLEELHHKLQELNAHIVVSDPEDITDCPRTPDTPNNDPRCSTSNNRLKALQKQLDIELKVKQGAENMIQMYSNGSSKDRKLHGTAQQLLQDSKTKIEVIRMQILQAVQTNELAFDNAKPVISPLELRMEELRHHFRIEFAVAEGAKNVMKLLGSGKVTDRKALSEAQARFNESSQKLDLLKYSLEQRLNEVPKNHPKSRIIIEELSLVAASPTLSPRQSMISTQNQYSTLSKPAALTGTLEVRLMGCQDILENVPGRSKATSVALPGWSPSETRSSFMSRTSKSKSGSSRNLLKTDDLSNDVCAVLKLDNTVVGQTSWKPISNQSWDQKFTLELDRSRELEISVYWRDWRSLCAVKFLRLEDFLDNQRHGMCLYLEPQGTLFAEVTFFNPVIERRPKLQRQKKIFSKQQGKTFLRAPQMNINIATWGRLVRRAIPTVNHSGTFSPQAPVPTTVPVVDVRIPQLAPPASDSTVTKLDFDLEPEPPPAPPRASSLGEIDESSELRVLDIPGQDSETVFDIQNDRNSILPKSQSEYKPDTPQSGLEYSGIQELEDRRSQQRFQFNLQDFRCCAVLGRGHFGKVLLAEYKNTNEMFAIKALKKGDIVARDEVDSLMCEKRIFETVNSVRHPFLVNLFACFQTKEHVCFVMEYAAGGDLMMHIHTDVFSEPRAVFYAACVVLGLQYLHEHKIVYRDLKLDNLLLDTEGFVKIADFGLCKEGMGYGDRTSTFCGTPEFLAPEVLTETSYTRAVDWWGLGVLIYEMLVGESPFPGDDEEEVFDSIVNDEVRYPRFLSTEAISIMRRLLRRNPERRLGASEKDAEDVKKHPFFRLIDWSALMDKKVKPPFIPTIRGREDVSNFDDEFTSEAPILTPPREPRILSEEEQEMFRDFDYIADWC
Sequence of High affinity nerve growth factor receptor (P04629 whole entry): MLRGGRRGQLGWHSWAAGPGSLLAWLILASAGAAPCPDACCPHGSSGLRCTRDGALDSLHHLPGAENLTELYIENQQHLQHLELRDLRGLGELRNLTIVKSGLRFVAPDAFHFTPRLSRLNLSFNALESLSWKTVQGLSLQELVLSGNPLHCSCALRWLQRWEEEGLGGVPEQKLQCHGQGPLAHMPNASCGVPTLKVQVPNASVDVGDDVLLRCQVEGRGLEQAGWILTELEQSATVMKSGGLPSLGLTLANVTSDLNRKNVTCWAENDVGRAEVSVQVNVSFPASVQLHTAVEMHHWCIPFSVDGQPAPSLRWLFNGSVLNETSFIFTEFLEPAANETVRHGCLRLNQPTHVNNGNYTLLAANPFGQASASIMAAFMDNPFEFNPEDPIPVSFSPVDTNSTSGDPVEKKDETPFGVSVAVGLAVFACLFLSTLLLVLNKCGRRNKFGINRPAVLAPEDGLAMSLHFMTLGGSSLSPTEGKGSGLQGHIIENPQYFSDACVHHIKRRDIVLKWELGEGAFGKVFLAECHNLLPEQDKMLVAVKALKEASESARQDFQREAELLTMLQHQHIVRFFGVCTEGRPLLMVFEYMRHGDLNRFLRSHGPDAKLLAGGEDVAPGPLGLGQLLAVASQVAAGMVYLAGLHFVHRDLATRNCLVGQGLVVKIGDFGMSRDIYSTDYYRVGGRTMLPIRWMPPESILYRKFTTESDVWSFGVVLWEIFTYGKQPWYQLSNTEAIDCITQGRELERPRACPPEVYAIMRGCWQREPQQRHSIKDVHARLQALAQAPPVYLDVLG
Sequence of Tyrosine-protein kinase FRK (P42685 whole entry): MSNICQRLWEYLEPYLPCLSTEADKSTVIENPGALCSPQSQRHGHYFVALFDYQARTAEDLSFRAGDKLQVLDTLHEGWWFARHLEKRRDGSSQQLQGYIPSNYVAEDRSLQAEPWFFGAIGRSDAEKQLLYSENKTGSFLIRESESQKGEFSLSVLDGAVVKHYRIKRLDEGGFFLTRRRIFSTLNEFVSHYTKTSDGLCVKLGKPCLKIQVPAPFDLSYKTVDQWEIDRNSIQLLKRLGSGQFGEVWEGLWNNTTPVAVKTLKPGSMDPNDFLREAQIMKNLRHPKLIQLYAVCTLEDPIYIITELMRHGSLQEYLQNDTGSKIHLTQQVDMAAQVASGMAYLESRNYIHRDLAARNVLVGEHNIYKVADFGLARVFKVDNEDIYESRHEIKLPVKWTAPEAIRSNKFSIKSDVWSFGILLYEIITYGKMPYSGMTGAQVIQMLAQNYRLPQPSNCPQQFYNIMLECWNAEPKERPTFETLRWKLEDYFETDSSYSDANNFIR
Sequence of Dual specificity protein phosphatase 3 (P51452 whole entry): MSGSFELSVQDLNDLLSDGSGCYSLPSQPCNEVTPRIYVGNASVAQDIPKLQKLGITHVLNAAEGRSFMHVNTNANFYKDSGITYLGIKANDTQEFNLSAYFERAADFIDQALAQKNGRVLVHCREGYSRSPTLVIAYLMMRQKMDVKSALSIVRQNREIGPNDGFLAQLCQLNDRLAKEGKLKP
Sequence of Tyrosine-protein kinase Blk (P51451 whole entry): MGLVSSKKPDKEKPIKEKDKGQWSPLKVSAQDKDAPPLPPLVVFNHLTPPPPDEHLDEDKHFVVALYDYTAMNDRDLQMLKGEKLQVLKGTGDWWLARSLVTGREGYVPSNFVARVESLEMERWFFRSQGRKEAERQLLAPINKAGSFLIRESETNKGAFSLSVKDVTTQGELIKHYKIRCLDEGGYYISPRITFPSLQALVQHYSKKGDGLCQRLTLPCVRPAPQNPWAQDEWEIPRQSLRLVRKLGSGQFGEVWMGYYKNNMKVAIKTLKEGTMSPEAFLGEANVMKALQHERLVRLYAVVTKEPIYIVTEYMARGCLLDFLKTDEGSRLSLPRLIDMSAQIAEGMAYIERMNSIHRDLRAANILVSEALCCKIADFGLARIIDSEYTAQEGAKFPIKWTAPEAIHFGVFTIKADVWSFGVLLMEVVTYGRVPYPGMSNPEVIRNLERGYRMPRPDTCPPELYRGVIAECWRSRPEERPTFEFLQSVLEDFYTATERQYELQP

For `CCn1nc(/C=C/c2ccccc2)nc2c(=O)n(C)c(=O)nc1-2`, the IC50 [1] was 106000 nM (inactive), the CC50 [2] was > 40000 nM (active) and the AC50 [3] was 487 nM (active). For the same molecule, the IC50 [4] was 57.2 nM (active) and the AC50 [5] was 5790 nM (active).

For `CC(C)c1ccc(-c2nnn(CCC(=O)O)n2)cc1`, the IC50 [6] was > 80000 nM (inactive) and the AC50 (Cytochrome P450 2C9) was 31600 nM (inconclusive).

For `COc1cc2c(cc1Nc1nc(Nc3cccc(F)c3C(N)=O)c3cc[nH]c3n1)N(C(=O)CN(C)C)CC2`, the Ki [7] was 2000 nM (active), the Ki [8] was > 7940 nM (inactive) and the Ki [9] was > 1580 nM (inactive). The Ki [10] was > 3160 nM (inactive), the Ki [11] was 1000 nM (active) and the Ki [12] was 1.58 nM (active). For the same molecule, the Ki [13] was > 10000 nM (inactive), the Ki [14] was > 1260 nM (inactive) and the Ki [15] was > 2510 nM (inactive).
